The results in this text go back to ChEMBL document CHEMBL1146150, “Synthesis and antibacterial activity of novel neamine derivatives” (2006).

≈ marks a conversion by molar mass, not a printed value. Some results are limits rather than exact numbers.

Holding throughout (assay type): functional
Test [1] concerns Staphylococcus aureus. As to the kind of experiment: Antibacterial activity against Staphylococcus aureus RN4220 by twofold agar dilution method. Background: In agar dilution, organisms are placed on agar that contains the substance at set levels.
Test [2] relates to Staphylococcus aureus. The experiment in a line: Antibacterial activity against Staphylococcus aureus RN4220/pMS520 expressing AAD(4')-I enzyme by twofold agar dilution method.
Test [3] concerns Staphylococcus aureus. The experiment in a line: Antibacterial activity against Staphylococcus aureus RN4220/pCR1948 expressing AAC(6')-APH(2'') enzyme by twofold agar dilution method.
Test [4] has as its system Staphylococcus aureus. As to the kind of experiment: Antibacterial activity against gentamycin and arbekacin-resistant Staphylococcus aureus RN4220/pMF490 expressing AAC(6')-APH(2'') enzyme by twofold agar dilution method.
For test [5], the system named is Staphylococcus aureus. The experiment in a line: Antibacterial activity against gentamycin and arbekacin-resistant Staphylococcus aureus MF490 expressing AAD(4'), AAC(6')-APH(2'') enzymes by twofold agar dilution method.
A further test deals with Escherichia coli. As to the kind of experiment: Antibacterial activity against Escherichia coli NIH JC2 by twofold agar dilution method.
The subject of test [6] is Pseudomonas aeruginosa. As to the kind of experiment: Antibacterial activity against Pseudomonas aeruginosa PAO1 by twofold agar dilution method.
Test [7] deals with Pseudomonas aeruginosa. The experiment in a line: Antibacterial activity against Pseudomonas aeruginosa GN4925 expressing AAC(6')-Ib by twofold agar dilution method.
Test [8] relates to Pseudomonas aeruginosa. The experiment in a line: Antibacterial activity against Pseudomonas aeruginosa GN3054 expressing AAC(3)-I by twofold agar dilution method.

As a reminder, the MIC is the smallest concentration in the dilution series that meets the test's criterion for growth inhibition. A high value points to weaker potency.

For `NCCCNC(=O)O[C@@H]1[C@@H](O)[C@H](O[C@H]2O[C@H](CN)CC[C@H]2N)[C@@H](N)C[C@H]1NC(=O)[C@@H](O)CCN`, the MIC in the test on Staphylococcus aureus [1] came to 16 µg/mL (≈ 32.5 µM); against Staphylococcus aureus [2], 16 µg/mL (≈ 32.5 µM); against Staphylococcus aureus [3], 16 µg/mL (≈ 32.5 µM); against Staphylococcus aureus [4], 16 µg/mL (≈ 32.5 µM); against Staphylococcus aureus [5] it was 64 µg/mL (≈ 130 µM); against Escherichia coli it was 64 µg/mL (≈ 130 µM). The MIC came out at 32 µg/mL (≈ 65.1 µM) with Pseudomonas aeruginosa [6], 128 µg/mL (≈ 260 µM) with Pseudomonas aeruginosa [7] and 128 µg/mL (≈ 260 µM) against Pseudomonas aeruginosa [8].
As for `NCCNC(=O)O[C@@H]1[C@@H](O)[C@H](O[C@H]2O[C@H](CN)CC[C@H]2N)[C@@H](N)C[C@H]1NC(=O)[C@@H](O)CCN`, the minimal inhibitory concentration (MIC) with Staphylococcus aureus [1] came to 8 µg/mL (≈ 16.8 µM); with Staphylococcus aureus [2] it was 8 µg/mL (≈ 16.8 µM); against Staphylococcus aureus [3], 8 µg/mL (≈ 16.8 µM); with Staphylococcus aureus [4], 16 µg/mL (≈ 33.5 µM); against Staphylococcus aureus [5] it was 32 µg/mL (≈ 67 µM); in the test on Escherichia coli it was 32 µg/mL (≈ 67 µM). For the same compound, the MIC in the test with Pseudomonas aeruginosa [6], in the test with Pseudomonas aeruginosa [7] and with Pseudomonas aeruginosa [8] was more than 32 µg/mL throughout.
As for `NCCNC(=O)O[C@@H]1[C@@H](O)[C@H](NC(=O)[C@@H](O)CCN)C[C@H](N)[C@H]1O[C@H]1O[C@H](CN)CC[C@H]1N`, the MIC was determined as 2 µg/mL (≈ 4.19 µM) with Staphylococcus aureus [1]; 2 µg/mL (≈ 4.19 µM) with Staphylococcus aureus [2]; 2 µg/mL (≈ 4.19 µM) with Staphylococcus aureus [3]; 2 µg/mL (≈ 4.19 µM) in the test on Staphylococcus aureus [4]; 8 µg/mL (≈ 16.8 µM) against Staphylococcus aureus [5]; 8 µg/mL (≈ 16.8 µM) in the test with Escherichia coli. In addition, the minimal inhibitory concentration (MIC) was 8 µg/mL (≈ 16.8 µM) against Pseudomonas aeruginosa [6], 8 µg/mL (≈ 16.8 µM) with Pseudomonas aeruginosa [7] and 16 µg/mL (≈ 33.5 µM) in the test on Pseudomonas aeruginosa [8].
On to `NCCCNC(=O)O[C@@H]1[C@@H](O)[C@H](NC(=O)[C@@H](O)CCN)C[C@H](N)[C@H]1O[C@H]1O[C@H](CN)CC[C@H]1N`, for which the MIC in the test with Staphylococcus aureus [1] turned out to be 16 µg/mL (≈ 32.5 µM); against Staphylococcus aureus [2], 16 µg/mL (≈ 32.5 µM); in the test with Staphylococcus aureus [3], 16 µg/mL (≈ 32.5 µM); in the test with Staphylococcus aureus [4], 32 µg/mL (≈ 65.1 µM); in the test on Staphylococcus aureus [5], 128 µg/mL (≈ 260 µM); in the test with Escherichia coli, 32 µg/mL (≈ 65.1 µM). Also, the values for the MIC in the test on Pseudomonas aeruginosa [6], in the test with Pseudomonas aeruginosa [7] and against Pseudomonas aeruginosa [8] were 32 µg/mL (≈ 65.1 µM), 128 µg/mL (≈ 260 µM) and 64 µg/mL (≈ 130 µM), respectively.
In the case of `NCC[C@H](O)C(=O)N[C@@H]1C[C@H](N)[C@@H](O[C@H]2O[C@H](CN)CC[C@H]2N)[C@H](O)[C@H]1O`, the minimum inhibitory concentration (MIC) against Staphylococcus aureus [1] is 4 µg/mL (≈ 10.2 µM); against Staphylococcus aureus [2] it was 4 µg/mL (≈ 10.2 µM); against Staphylococcus aureus [3], 2 µg/mL (≈ 5.11 µM); in the test on Staphylococcus aureus [4], 4 µg/mL (≈ 10.2 µM); against Staphylococcus aureus [5], 8 µg/mL (≈ 20.4 µM); against Escherichia coli, 8 µg/mL (≈ 20.4 µM). The MIC amounted to 8 µg/mL (≈ 20.4 µM) in the test with Pseudomonas aeruginosa [6], 64 µg/mL (≈ 163 µM) with Pseudomonas aeruginosa [7] and 16 µg/mL (≈ 40.9 µM) in the test on Pseudomonas aeruginosa [8].
Regarding `NCC[C@H](O)C(=O)N[C@@H]1C[C@H](N)[C@@H](O[C@H]2O[C@H](CN)CC[C@H]2N)[C@H](O)[C@H]1O[C@H]1O[C@H](CO)[C@@H](O)[C@H](N)[C@H]1O` [ARBEKACIN], the MIC against Staphylococcus aureus [1] is 0.5 µg/mL (≈ 0.905 µM); in the test with Staphylococcus aureus [2], 0.5 µg/mL (≈ 0.905 µM); with Staphylococcus aureus [3], 1 µg/mL (≈ 1.81 µM); with Staphylococcus aureus [4], 8 µg/mL (≈ 14.5 µM); in the test on Staphylococcus aureus [5], 64 µg/mL (≈ 116 µM); in the test with Escherichia coli, 1 µg/mL (≈ 1.81 µM). Moreover, the MIC with Pseudomonas aeruginosa [6] turned out to be 4 µg/mL (≈ 7.24 µM); with Pseudomonas aeruginosa [7] it was 4 µg/mL (≈ 7.24 µM); against Pseudomonas aeruginosa [8], 8 µg/mL (≈ 14.5 µM).
For the compound `CN[C@@H]1[C@@H](O)[C@@H](O[C@@H]2[C@@H](O)[C@H](O[C@H]3O[C@H]([C@@H](C)NC)CC[C@H]3N)[C@@H](N)C[C@H]2N)OC[C@]1(C)O` [GENTAMICIN C1], the MIC against Staphylococcus aureus [1] is 0.25 µg/mL (≈ 0.523 µM); in the test with Staphylococcus aureus [2] it was 0.25 µg/mL (≈ 0.523 µM); against Staphylococcus aureus [3], 64 µg/mL (≈ 134 µM); in the test on Staphylococcus aureus [4], more than 128 µg/mL; against Staphylococcus aureus [5], more than 128 µg/mL; against Escherichia coli it was 0.5 µg/mL (≈ 1.05 µM). The minimal inhibitory concentration (MIC) is 4 µg/mL (≈ 8.38 µM) in the test on Pseudomonas aeruginosa [6], 128 µg/mL (≈ 268 µM) in the test with Pseudomonas aeruginosa [7] and 128 µg/mL (≈ 268 µM) against Pseudomonas aeruginosa [8].
On to `CN[C@@H]1[C@@H](O)[C@@H](O[C@@H]2[C@@H](O)[C@H](O[C@H]3O[C@H](C(C)N)CC[C@H]3N)[C@@H](N)C[C@H]2N)OC[C@]1(C)O` (stereo not given in full) [GENTAMICIN C2], for which the MIC against Staphylococcus aureus [1] is 0.25 µg/mL (≈ 0.539 µM); with Staphylococcus aureus [2] it was 0.25 µg/mL (≈ 0.539 µM); against Staphylococcus aureus [3], 64 µg/mL (≈ 138 µM); against Staphylococcus aureus [4], more than 128 µg/mL; against Staphylococcus aureus [5], more than 128 µg/mL; in the test on Escherichia coli, 0.5 µg/mL (≈ 1.08 µM). Moreover, the MIC against Pseudomonas aeruginosa [6] is 4 µg/mL (≈ 8.63 µM); with Pseudomonas aeruginosa [7], 128 µg/mL (≈ 276 µM); in the test with Pseudomonas aeruginosa [8], 128 µg/mL (≈ 276 µM).
Consider `NC[C@@H]1CC[C@@H](N)[C@@H](O[C@H]2[C@H](O)[C@@H](O)[C@H](N)C[C@@H]2N)O1` [GENTAMINE C1A], for which the MIC against Staphylococcus aureus [1] was 16 µg/mL (≈ 55.1 µM); against Staphylococcus aureus [2], 16 µg/mL (≈ 55.1 µM); with Staphylococcus aureus [3], more than 128 µg/mL; against Staphylococcus aureus [5] it was more than 128 µg/mL; against Escherichia coli, 32 µg/mL (≈ 110 µM); in the test on Pseudomonas aeruginosa [6] it was 32 µg/mL (≈ 110 µM). The MIC against Pseudomonas aeruginosa [7] is more than 128 µg/mL; in the test with Pseudomonas aeruginosa [8], 64 µg/mL (≈ 220 µM).
